Measurements taken from patent publication US11292801B2, “Calpain modulators and therapeutic uses thereof” (Blade Therapeutics, Inc., priority 2016, dated 2022).

Key:
Human Calpain 1/NS1 = target: T1, Human Calpain 1/NS1 (Homo sapiens, UniProt P07384); experiment: Biochemical inhibition of calpain 1, continuous fluorescence (FRET substrate) assay; details: mean, read-out: Human Calpain 1/NS1 IC50 (nM)_MEAN
T1 sequence (P07384 1-714): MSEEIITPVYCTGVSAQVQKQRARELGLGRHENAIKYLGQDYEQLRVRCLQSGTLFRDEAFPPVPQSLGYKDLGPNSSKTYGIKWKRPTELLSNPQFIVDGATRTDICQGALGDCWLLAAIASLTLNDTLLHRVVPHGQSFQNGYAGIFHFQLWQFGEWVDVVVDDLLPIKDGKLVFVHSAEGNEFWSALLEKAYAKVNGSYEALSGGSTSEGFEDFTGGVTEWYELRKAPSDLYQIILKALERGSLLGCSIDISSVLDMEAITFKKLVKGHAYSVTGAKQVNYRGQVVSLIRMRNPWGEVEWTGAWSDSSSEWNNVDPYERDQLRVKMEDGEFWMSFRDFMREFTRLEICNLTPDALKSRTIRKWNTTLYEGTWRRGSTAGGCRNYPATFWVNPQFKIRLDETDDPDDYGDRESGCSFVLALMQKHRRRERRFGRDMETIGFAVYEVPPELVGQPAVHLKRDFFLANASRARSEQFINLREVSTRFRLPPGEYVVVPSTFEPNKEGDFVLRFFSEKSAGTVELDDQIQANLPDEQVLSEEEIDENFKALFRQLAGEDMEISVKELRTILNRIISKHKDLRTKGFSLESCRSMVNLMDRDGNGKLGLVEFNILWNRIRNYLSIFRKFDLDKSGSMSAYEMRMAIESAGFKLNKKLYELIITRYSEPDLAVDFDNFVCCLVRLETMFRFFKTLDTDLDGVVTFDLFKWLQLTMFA
T1 sequence (P04632 1-268 partner): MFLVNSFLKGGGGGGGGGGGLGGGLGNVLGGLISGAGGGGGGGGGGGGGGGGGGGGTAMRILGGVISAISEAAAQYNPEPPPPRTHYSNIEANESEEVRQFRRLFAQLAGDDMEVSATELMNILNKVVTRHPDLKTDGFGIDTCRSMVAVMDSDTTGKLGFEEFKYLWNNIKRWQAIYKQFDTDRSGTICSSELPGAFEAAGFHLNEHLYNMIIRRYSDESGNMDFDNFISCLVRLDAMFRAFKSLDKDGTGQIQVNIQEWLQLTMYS
Outline: (§1)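 IC50 values come from 4-parameter fits of progress-curve rates (1-5 min slopes) against log inhibitor concentration. Calpain and inhibitor premixed at ambient 25C in Tris pH ~7.5/NaCl/DTT buffer, then CaCl2 and FRET substrate added to activate; 5-FAM fluorescence (ex 490/em 520) followed 10 min.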

Human Calpain 2/NS1 = target: T2, Human Calpain 2/NS1 (Homo sapiens, UniProt P17655); experiment: Biochemical inhibition of calpain 2, continuous fluorescence (FRET substrate) assay; details: mean, read-out: Human Calpain 2/NS1 IC50 (nM)_MEAN
T2 sequence (P17655 1-700): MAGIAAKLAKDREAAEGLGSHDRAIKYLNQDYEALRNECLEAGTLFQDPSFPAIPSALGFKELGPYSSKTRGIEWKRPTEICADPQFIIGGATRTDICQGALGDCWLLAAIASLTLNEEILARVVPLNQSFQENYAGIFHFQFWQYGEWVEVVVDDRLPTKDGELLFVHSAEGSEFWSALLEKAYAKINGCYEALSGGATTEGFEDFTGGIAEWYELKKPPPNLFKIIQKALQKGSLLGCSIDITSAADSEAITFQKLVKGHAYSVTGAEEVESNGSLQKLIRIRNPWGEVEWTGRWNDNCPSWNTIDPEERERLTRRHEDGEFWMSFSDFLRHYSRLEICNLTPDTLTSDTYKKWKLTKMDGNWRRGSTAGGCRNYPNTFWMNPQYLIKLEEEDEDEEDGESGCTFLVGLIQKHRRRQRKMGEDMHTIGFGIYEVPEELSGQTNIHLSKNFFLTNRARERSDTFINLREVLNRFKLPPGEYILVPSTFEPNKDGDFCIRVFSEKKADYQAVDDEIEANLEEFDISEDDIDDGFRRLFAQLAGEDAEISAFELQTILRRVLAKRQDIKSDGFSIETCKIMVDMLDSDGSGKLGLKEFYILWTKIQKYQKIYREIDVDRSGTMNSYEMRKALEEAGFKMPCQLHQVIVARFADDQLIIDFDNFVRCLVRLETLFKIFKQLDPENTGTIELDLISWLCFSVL
T2 sequence (P04632 1-268 partner): T1 sequence (P04632 1-268 partner)
Outline: as §1

Human Calpain 9/NS1 = target: T3, Human Calpain 9/NS1 (Homo sapiens, UniProt O14815); experiment: Biochemical inhibition of calpain 9, continuous fluorescence (FRET substrate) assay; details: mean, read-out: Human Calpain 9/NS1 IC50 (nM)_MEAN
T3 sequence (O14815 1-690): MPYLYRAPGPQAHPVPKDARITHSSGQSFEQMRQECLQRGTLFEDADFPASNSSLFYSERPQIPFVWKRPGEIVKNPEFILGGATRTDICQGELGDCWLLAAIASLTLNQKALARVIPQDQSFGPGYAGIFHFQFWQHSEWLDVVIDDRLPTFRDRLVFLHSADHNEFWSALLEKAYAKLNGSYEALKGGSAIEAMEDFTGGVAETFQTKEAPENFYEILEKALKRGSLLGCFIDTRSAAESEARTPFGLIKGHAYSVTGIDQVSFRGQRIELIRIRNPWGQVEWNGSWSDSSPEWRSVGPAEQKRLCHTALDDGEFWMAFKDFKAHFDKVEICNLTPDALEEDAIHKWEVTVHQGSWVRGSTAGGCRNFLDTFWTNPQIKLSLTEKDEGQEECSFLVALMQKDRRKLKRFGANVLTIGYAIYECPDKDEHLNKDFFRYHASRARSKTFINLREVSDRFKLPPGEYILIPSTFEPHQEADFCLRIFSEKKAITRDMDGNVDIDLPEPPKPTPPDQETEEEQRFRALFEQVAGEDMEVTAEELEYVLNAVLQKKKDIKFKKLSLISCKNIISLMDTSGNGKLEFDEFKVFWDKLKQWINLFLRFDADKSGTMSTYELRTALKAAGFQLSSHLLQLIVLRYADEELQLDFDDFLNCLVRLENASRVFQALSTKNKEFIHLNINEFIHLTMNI
T3 sequence (P04632 1-268 partner): T1 sequence (P04632 1-268 partner)
Outline: as §1

Row | Molecule | IC50 (Human Calpain 1/NS1) | IC50 (Human Calpain 2/NS1) | IC50 (Human Calpain 9/NS1)
1 | O=C[C@@H]1C/C=C/CCCCCc2cccnc2C(=O)N1 [Compound 48, (S,E)-15-Oxo-6,7,8,9,12,13,14,15-octahydro-5h-pyrido[2,3-c][1]aza-cyclotridecine-13-carbaldehyde] | > 10000 nM | 3000 to 10000 nM | < 3000 nM
2 | CON(C)C(=O)[C@@H]1C/C=C/CCOc2ccnc(n2)-c2ccccc2C(=O)N1 [Compound 135, (S,E)-N-methoxy-N-methyl-3-oxo-11-oxa-4-aza-1(2,4)-pyrimidina-2(1,2)-benzenacycloundecaphan-7-ene-5-carboxamide] | > 10000 nM | > 10000 nM | > 10000 nM
3 | O=C1NC(C(=O)C(=O)N2CCOCC2)CCCCOCCOCc2ccccc21 (stereo not drawn) [Compound 115, 1-Morpholino-2-(12-oxo-1,3,4,6,7,8,9,10,11,12-decahydrobenzo[f][1,4]dioxa[9]azacyclotetradecin-10-yl)ethane-1,2-dione] | > 10000 nM | > 10000 nM | > 10000 nM
4 | O=C(NCc1ccncc1)C(=O)C1CCCCOCCOCc2ccccc2C(=O)N1 (stereo not drawn) [Compound 117, 2-Oxo-2-(12-oxo-1,3,4,6,7,8,9,10,11,12-decahydrobenzo[f][1,4]dioxa[9]aza-cyclotetradecin-10-yl)-N-(pyridin-4-ylmethyl)acetamide] | > 10000 nM | 3000 to 10000 nM | < 3000 nM
5 | CCCNC(=O)C(=O)C1CCCCOCCOCc2ccccc2C(=O)N1 (stereo not drawn) [Compound 91, 2-Oxo-2-(12-oxo-1,3,4,6,7,8,9,10,11,12-decahydrobenzo[f][1,4]dioxa[9]azacyclotetradecin-10-yl)-N-propylacetamide] | > 10000 nM | > 10000 nM | > 10000 nM
6 | O=C[C@@H]1CCCCOCCOc2ccccc2C(=O)N1 [Compound 19, (S)-11-Oxo-2,3,6,7,8,9,10,11-octahydro-5h-benzo[e][1,4]dioxa[8]azacyclotridecine-9-carbaldehyde] | > 10000 nM | 3000 to 10000 nM | 3000 to 10000 nM
7 | CCNC(=O)C(=O)[C@@H]1CC=CCCCCCc2ccccc2C(=O)N1 [Compound 26, (S)—N-ethyl-2-oxo-2-(1-oxo-2,3,4,7,8,9,10,11-octahydro-1h-benzo[c][1]azacyclotridecin-3-yl)acetamide] | > 10000 nM | > 10000 nM | 3000 to 10000 nM
8 | O=C(NCc1cccc(OC(F)(F)F)c1)C(=O)C1CCCCOCCOCc2ccccc2C(=O)N1 (stereo not drawn) [Compound 120, 2-Oxo-2-(12-oxo-1,3,4,6,7,8,9,10,11,12-decahydrobenzo[f][1,4]dioxa[9]aza-cyclotetradecin-10-yl)-N-(3-(trifluoromethoxy)benzyl)acetamide] | > 10000 nM | > 10000 nM | < 3000 nM
9 | CS(=O)(=O)c1cccc(CNC(=O)C(=O)C2CCCCOCCOCc3ccccc3C(=O)N2)c1 (stereo not drawn) [Compound 118, N-(3-(methylsulfonyl)benzyl)-2-oxo-2-(12-oxo-1,3,4,6,7,8,9,10,11,12-decahydrobenzo[f][1,4]dioxa[9]azacyclotetradecin-10-yl)acetamide] | > 10000 nM | > 10000 nM | < 3000 nM
10 | CC(C)NC(=O)C(=O)[C@@H]1CCCCOCCOCc2ccccc2C(=O)N1 [Compound 52, (S)—N-isopropyl-2-oxo-2-(12-oxo-1,3,4,6,7,8,9,10,11,12-decahydrobenzo[f][1,4]dioxa[9]azacyclotetradecin-10-yl)acetamide] | > 10000 nM | > 10000 nM | > 10000 nM

Second part, the molecule after the results:

Row | IC50 (Human Calpain 1/NS1) | IC50 (Human Calpain 2/NS1) | IC50 (Human Calpain 9/NS1) | Molecule
11 | > 10000 nM | > 10000 nM | < 3000 nM | O=C(NCc1ccccc1Cl)C(=O)C1CCCCOCCOCc2ccccc2C(=O)N1 (stereo not drawn) [Compound 95, N-(2-chlorobenzyl)-2-oxo-2-(12-oxo-1,3,4,6,7,8,9,10,11,12-decahydrobenzo[f][1,4]dioxa[9]azacyclotetradecin-10-yl)acetamide]
12 | 3000 to 10000 nM | < 3000 nM | 3000 to 10000 nM | O=C[C@@H]1Cc2ccccc2C=CCCCCOc2ccccc2C(=O)N1 [Compound 13, (S)-19-Oxo-6,7,8,9,16,17,18,19-octahydrodibenzo[b,h][1]oxa[5]aza-cyclopentadecine-17-carbaldehyde]
13 | < 3000 nM | < 3000 nM | < 3000 nM | (S)-2-(1^3-methyl-11-oxo-1^1H-3-oxa-10-aza-1(1,5)-pyrazola-2(1,3)-benzenacycloundecaphane-9-yl)-2-oxoacetamide [Compound 143]
14 | < 3000 nM | < 3000 nM | < 3000 nM | O=C[C@@H]1Cc2ccc(cc2)OC/C=C/COc2ccc3c(cnn3-c3ncccc3C(=O)N1)c2 [Compound 66, (5S,E)-3-oxo-1^1H-8,13-dioxa-4-aza-1(1,5)-indazola-2(2,3)-pyridina-7(1,4)-benzenacyclotridecaphan-10-ene-5-carbaldehyde]
15 | < 3000 nM | < 3000 nM | < 3000 nM | O=C[C@@H]1Cc2ccccc2CCCOCc2ccccc2C(=O)N1 [Compound 31, (S)-17-Oxo-5,7,8,9,14,15,16,17-octahydrodibenzo[c,i][1]oxa[6]aza-cyclotridecine-15-carbaldehyde]
16 | < 3000 nM | < 3000 nM | 3000 to 10000 nM | O=C[C@@H]1CC=CCOCCCCOCc2ccccc2C(=O)N1 [Compound 12, (S)-14-Oxo-1,3,4,5,6,8,11,12,13,14-decahydrobenzo[h][1,6]dioxa[11]aza-cyclohexadecine-12-carbaldehyde]
17 | < 3000 nM | < 3000 nM | < 3000 nM | NC(=O)C(=O)[C@@H]1CCCCCCOc2ccnc(n2)-c2ccccc2C(=O)N1 [Compound 134, (S)-2-oxo-2-(3-oxo-12-oxa-4-aza-1(2,4)-pyrimidina-2(1,2)-benzenacyclododecaphane-5-yl)acetamide]
18 | 3000 to 10000 nM | < 3000 nM | < 3000 nM | O=C[C@@H]1CC=CCCOc2ccnc(n2)-c2ccccc2C(=O)N1 [Compound 39, (S)-3-Oxo-11-oxa-4-aza-1(2,4)-pyrimidina-2(1,2)-benzenacyclo undecaphan-7-ene-5-carbaldehyde]
